Assay results from patent US20140045807A2, “THE USE OF 3-METHOXY-PREGNENOLONE FOR THE PREPARATION OF A DRUG FOR TREATING A TRAUMATIC BRAIN INJURY” (priority 2004, published 2014).

What was measured:
[1] = system: human neuroblastoma HS-SY5Y cells; experiment: Cytotoxicity of okadaic acid, steroid protection (LDH release); format: cell-based; details: 24 hours, simultaneous addition, increasing concentrations
Excerpt: FIG. 6: Toxicity of okadaic acid. Steroid protection. […] Cell death was indicated by the release of lactate dehydrogenase (LDH) in the culture medium.
Okadaic acid is a protein phosphatase inhibiter. Thus, the hyperphosphorylation of tau protein is implicated in microtubule depolymerization and in human neuroblastoma HS-SY5Y cell death. The exposure of SY5Y cell cultures to okadaic acid does in fact cause significant cell death.

[2] = system: microtubule-associated MAP2 in PC12 cells; experiment: Immunolabeling of microtubule-associated MAP2 in PC12 cells; format: cell-based, rat; details: 20 μM, NGF 10 ng/ml (FIG. 4)
Excerpt: They were fixed and exposed to anti-MAP2 antibodies that reveal microtubule-associated MAP2 exclusively.
To test the effect of selected molecules on neuritic growth, we first used the PC12 line, which has long been employed in neurobiological research. In the presence of NGF (nerve growth factor), the cells of this line, which arise from a rat pheochromocytoma, form neuritic extensions containing MAP-associated microtubules. The growth of these elongations is stimulated by the addition of PREG. […] This neurite growth accompanies the stimulation by 43-B of the association of MAP2 to the microtubules (FIG. 4).

[3] = system: CCI traumatized animals; experiment: Water Exploration Test (WET) after Controlled Cortical Impact (CCI); format: in vivo, rat; design: key to Time spent in CZ, Conclusion vs. CCI-D0: ↓ ↓ ↓: decrease of analyzed variable with p < 0.001; ?: stability of analyzed variable; ↑: increase in analyzed variable with p < 0.05; key to Entry number in CZ, Conclusion vs. CCI-D0: ↓: decrease of analyzed variable with p < 0.05; ?: stability of analyzed variable; ↑ ↑: increase in analyzed variable with p < 0.01; details: for Entry number in CZ, Mean / Time spent in CZ, Mean: C-D0 = 100
Method: Male Sprague-Dawley rats of […] are used. There were 12 animals per group for all in vivo experiments (WET, MRI) except for the CHI injury which requested 17 animals per group because of the post-trauma mortality rate. Each group was then split in two subgroups of 6 individuals for all post-mortem analysis (biochemical, histological and immunohistological analysis.
CCI was performed with an electromagnetic impact device as described (MyNeurolab, St. Louis, Mo.; Brody et al. 2007). Anesthesized rats were subjected to a single right lateral CCI, with the following parameters: impact centered 4.0 mm anterior to lambda and 4.5 mm […] of midline, within the craniotomy of the animal. The impact was set at a velocity of 4 m/s with a sustained depression of 200 ms, using a 5.0 mm tip.
The […] is a rat, the more time it will spend “floating” (null velocity) in the central zone (see Fares-2009).
More precisely, a circular tank (180 cm diameter, 60 cm high) is filled with water maintained at 27° C. to a depth of 40 cm. The water is made opaque by adding black gouache, allowing the VideoTrack system (ViewPoint) to detect the white-coloured rat. This tank is divided into 4 identical quadrants (6,358 cm2 each) using two 180 cm long opaque plastic separators. In each quadrant, one rat is introduced with its head facing the corner between the separator and the tank's wall. It is noteworthy to emphasize that 4 rats can be tested simultaneously using the 4 quadrants. Using the VideoTrack system, we draw two virtual areas: a large one delineates the whole quadrant in which the rat is placed, the so-called Full Quadrant (FQ) and a small one that delineates a central zone (CZ). The CZ, having the same shape as the FQ, measures 2,921 cm2, and is considered to be anxiogenic for animals. Thus, the distance, the number of entries, the time spent, and the velocity profile in the CZ are measured to assess anxiety-like behaviour. In addition, the total distance traveled in the FQ represents an indicator of motor activity. The duration of each trial is 5 minutes.
The effect of 3-methoxy-PREG (MAP4343) on anxiety induced by trauma was analyzed using the WET test.

[4] = system: spinophilin; experiment: Western blot of spinophilin in cortex and hippocampus after CCI; format: in vivo, rat; details: 10 mg/kg or 20 mg/kg, first injection 2 h post-trauma, day 35, injured cortex and hippocampus and contralaterally
Method: FIG. 21: Spinophilin expression, 35 days after TBI, in the left-uninjured and right-injured hemispheres (A: cortex and B: hippocampus) of CCI-injured animals, receiving either vehicle (D0) or MAP4343 (D1: 10 mg/kg and D2: 20 mg/kg), 2 h after injury.
Samples were analyzed by Western-blot at day 35 post-trauma (D35) to evaluate the effects of MAP4343 on: MAP2 (the target of MAP4343 and a modulator of microtubule function), the post-synaptic markers PSD95 and spinophilin, the pre-synaptic marker synaptophysin, and the axonal growth/integrity marker GAP43.
Western blot was performed on cortex and hippocampus of TBI-injured animals receiving the first injection of MAP4343 (at 10 mg/kg or 20 mg/kg) or vehicle (sesame oil) 2 h after injury.
The expression level of various neuronal brain markers of plasticity was measured at day 35 post-trauma by western-blots in the cortex and hippocampus of left uninjured and right injured cerebral hemispheres of CCI traumatized animals receiving either vehicle (sesame oil, CCI-D0) or 3-methoxy-PREG (MAP4343) at 10 mg/kg (CCI-D1) or 20 mg/kg (CCI-D2), with first MAP4343 injection 2 h post-trauma.

[5] = Neurosteroids and 3-methoxy-PREG levels in plasma and hippocampus; details: rat
[6] = system: transgenic mice expressing the longest human tau protein isoform; experiment: RotaRod test in transgenic mice expressing the longest human tau protein isoform; format: in vivo, mouse; details: subcutaneous implant releasing 0.38 mg of steroid per day for 90 days
Excerpt: FIG. 8: Effect of molecule 43B on the motor incoordination of transgenic mice expressing the longest isoform of human tau protein in their neurons. […] The maximum speed of rotation of the RotaRod drum before the […] falls is a measurement of motor coordination (higher values correspond to a better treatment effect).
In order to evaluate the therapeutic potential of 43B to treat Alzheimer-type neurodegenerative diseases, a homozygous transgenic line of mice, such as described by Götz (EMBO J. 1995; 14(7):1304-13), can be used.
These mice express the longest human tau protein isoform. They present symptoms of neurological dysfunction expressed as muscular weakness and a reduction in motor coordination which correlate histologically with the appearance of abnormal neurites and hyperphosphorylated tau proteins as is seen in Alzheimer's disease. This pathological phosphorylation decreases the affinity of tau for microtubules and favors its aggregation.
A breeding program was undertaken at Bicêtre and genotyping made it possible to select mice homozygous for the transgene. […] These implants released 0.38 mg of steroid per day for 90 days. The progression of motor incoordination was followed by repeated RotaRod tests.

[7] = Day 7, CCI-D1, 10 mg/kg from 24 hours post-trauma
[8] = Day 7, CCI-D2, 20 mg/kg from 24 hours post-trauma
[9] = Day 27, CCI-D1, 10 mg/kg from 24 hours post-trauma
[10] = Day 27, CCI-D2, 20 mg/kg from 24 hours post-trauma
[11] = 3 h following injection, 10 mg/kg subcutaneously

CO[C@H]1CC[C@@]2(C)C(=CC[C@H]3[C@@H]4CC[C@H](C(C)=O)[C@@]4(C)CC[C@@H]32)C1 [3-methoxy-PREG, 3β-methoxy-pregna-5-ene-20-one]
cell death caused by okadaic acid (LDH release) [1]: the same effect, only much stronger
association of MAP2 to the microtubules [2]: stimulation
Entry number in CZ, Mean [3, 7]: 64
Time spent in CZ, Mean [3, 7]: 48
Time spent in CZ, Conclusion vs. CCI-D0 ([3]; Day 7, CCI-D2, 20 mg/kg): ↑
Entry number in CZ, Mean [3, 8]: 73
Time spent in CZ, Mean [3, 8]: 66
Entry number in CZ, Mean [3, 9]: 79
Time spent in CZ, Mean [3, 9]: 86
Entry number in CZ, Conclusion vs. CCI-D0 ([3]; Day 27, CCI-D2, 20 mg/kg): ↑ ↑
Time spent in CZ, Conclusion vs. CCI-D0 ([3]; Day 27, CCI-D2, 20 mg/kg): ↑
Entry number in CZ, Mean [3, 10]: 114
Time spent in CZ, Mean [3, 10]: 95
anxiety induced by CCI trauma ([3]; as early as day 7, in particular at 20 mg/kg (D2)): alleviated
spinophilin expression [4]: increase in spinophilin expression
conversion back to PREG or metabolism to PROG ([5]; 3 h after 10 mg/kg subcutaneously): not converted back to PREG or metabolized to PROG
concentration of the drug in hippocampus [5, 11]: 73.3 ± 14.68 ng/g
concentration of the drug in plasma [5, 11]: 21.11 ± 5.04 ng/mL
motor dysfunction (RotaRod) [6]: beneficial effect on motor dysfunction
